Experimental data from US20080318255A1, “Fluorescent Labeled Sphingosines” (priority 2003, published 2008).
Values belong to the compound of their own block, whether it stands above or below them.

Key:
human SPHK-2 = target: T1, human SPHK-2 (Homo sapiens, UniProt Q9NRA0); assay: Phosphorylation of fluorescent labeled sphingosines by SPHK-2 ([γ-32P]ATP, TLC); assay type: biochemical; conditions: for rate of phosphorylation (phosphate conversion rate) relative to sphingosine (=1), SPHK-2: 20 μM substrate, cytoplasmic fraction of HEK-293 cells overexpressing human SPHK-2
T1 construct: expressed in transfected cells; host or cells: HEK-293 (cytoplasmic fraction)
T1 sequence (Q9NRA0 1-654): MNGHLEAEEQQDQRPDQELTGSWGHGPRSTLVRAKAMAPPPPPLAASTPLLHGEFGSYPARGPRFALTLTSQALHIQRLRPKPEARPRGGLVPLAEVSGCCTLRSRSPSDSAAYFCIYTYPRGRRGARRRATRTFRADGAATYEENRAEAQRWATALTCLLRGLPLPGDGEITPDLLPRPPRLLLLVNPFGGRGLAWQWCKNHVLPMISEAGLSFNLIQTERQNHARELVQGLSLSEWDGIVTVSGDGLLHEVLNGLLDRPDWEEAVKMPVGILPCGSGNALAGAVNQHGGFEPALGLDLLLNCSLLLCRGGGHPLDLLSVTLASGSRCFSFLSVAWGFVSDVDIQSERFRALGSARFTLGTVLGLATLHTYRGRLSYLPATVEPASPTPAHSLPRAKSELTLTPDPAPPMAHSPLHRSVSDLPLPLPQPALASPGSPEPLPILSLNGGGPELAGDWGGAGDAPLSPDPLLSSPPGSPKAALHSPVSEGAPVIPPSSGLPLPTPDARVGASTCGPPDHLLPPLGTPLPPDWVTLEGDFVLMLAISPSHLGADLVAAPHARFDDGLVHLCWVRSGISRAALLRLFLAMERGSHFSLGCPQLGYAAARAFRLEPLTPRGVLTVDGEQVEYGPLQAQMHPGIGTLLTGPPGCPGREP
Experimental: (§1) The phosphorylation reactions are performed essentially as follows. The cytoplasmic fraction of recombinant HEK-293 cells overexpressing human SPHK-1 or -2 is incubated at 30° in total volumes of 100 μl with SP derivatives (20 μM; added from stock solutions in DMSO), 1 mM of ATP, and 2 μCi [γ-^32P]ATP in 50 mM Hepes buffer (pH 7.4) containing 15 mM MgCl2, 0.005% Triton X-100, 10 mM KCl , 10 mM NaF and 1.5 mM semicarbazide. Following incubations for different time points up to 2 hours, lipids are extracted and separated by TLC-plates (Merck). TLC is performed on silica plates, using either BuOH/acetic acid/H2O 3:1:1 or CHCl3/MeOH/H2O/NH4OH (28^w/w%) 200:150:29:1 as the mobile phase. In these systems sphingosine and the compound of Example 4 co-migrate. Identity of the metabolites with pyrene-labeled SPP and sphingomyelin (SM) is established by co-migration with commercially available tritium-labeled SPP and SM as standards.
(§2) Radiolabeled SPP derivatives are visualized and quantified using a Molecular Dynamics Storm Phosphorlmager (Sunnyvale, Calif.). The rate of phosphorylation is calculated and is reported for the fluorescent labeled sphingosines as value relative to the rate for sphingosine (for which the rate is 41 and 25 nmol/min/mg with SPHK-1 and -2, respectively).
(§3) The fluorescently labeled sphingosines of examples 1-7 are used as substrates for human recombinant SPHK-1 and SPHK-2 and all of them are converted to phosphorylated derivatives as visualized by the incorporation of radiolabeled phosphate upon incubation with [γ-32P]ATP and the kinases. The rates of phosphorylation (phosphate conversion rate) are determined and summarized in Table A relative to the natural substrate sphingosine (=SP), which has the assumed value of 1.

human SPHK-1 = target: T2, human SPHK-1 (Homo sapiens, UniProt Q9NYA1); assay: Phosphorylation of fluorescent labeled sphingosines by SPHK-1 ([γ-32P]ATP, TLC); assay type: biochemical; conditions: for rate of phosphorylation (phosphate conversion rate) relative to sphingosine (=1), SPHK-1: 20 μM substrate, cytoplasmic fraction of HEK-293 cells overexpressing human SPHK-1; for times (fold) less efficiently converted to the phosphate than SP, SPHK-1: compared to sphingosine (SP); for reduction of phosphorylation efficiency (factor), SPHK-1: compared to compound of example 4
T2 construct: expressed in transfected cells; host or cells: HEK-293 (cytoplasmic fraction)
T2 sequence (Q9NYA1 whole entry): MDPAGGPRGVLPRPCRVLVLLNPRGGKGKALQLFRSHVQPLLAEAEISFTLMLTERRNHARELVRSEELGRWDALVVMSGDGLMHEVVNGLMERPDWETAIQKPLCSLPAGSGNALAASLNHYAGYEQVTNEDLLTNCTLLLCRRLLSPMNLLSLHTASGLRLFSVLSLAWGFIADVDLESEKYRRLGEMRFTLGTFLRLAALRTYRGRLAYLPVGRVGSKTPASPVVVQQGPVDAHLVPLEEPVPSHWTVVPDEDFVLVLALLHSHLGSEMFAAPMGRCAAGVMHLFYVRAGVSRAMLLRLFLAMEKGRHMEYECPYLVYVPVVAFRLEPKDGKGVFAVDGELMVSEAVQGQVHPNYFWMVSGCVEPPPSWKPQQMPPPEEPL
Experimental: as §1, §2, §3

sphingosine kinase = assay: Fluorimetric assay of sphingosine kinase activity; assay type: biochemical
From the text: We have determined that sphingosine kinase in the presence of ATP phosphorylates a compound COMPA (compound of Example 23), which is a fluorescent labeled sphingosine, to obtain a corresponding phosphorylated compound COMPA-P (compound of Example 24) according to the Reaction SCHEME 4 as set out below.
wherein residues are as defined above and R3 is H. such as phosphorylation of a compound of Example […] by a sphingosine kinase to obtain a compound of Example […] in the presence of ATP. COMPA and COMPB are separated by liquid-liquid extraction. Fluorescence as a measure of enzyme activity of a compound of formula COMPA-P in the aqueous phase is quantified. In detail:
Sphingosine kinase is incubated in total volumes of 100 μl with a compound of formula COMPA (20 μM, added from stock solutions in DMSO) and ATP (1 mM) in 50 mM Hepes buffer, pH 7.4, containing 15 mM MgCl2, 0.005% Triton X-100, 10 mM KCl for 30 minutes at 30° and to the mixture obtained 100 μl 1 M potassium phosphate buffer, pH 8.5, followed by 250 μl CHCl3/MeOH 2:1 are added. […]
Fluorescence intensity is measured in a plate reader with excitation at 485 nm and emission at 538 nm. […] From the fluorescence intensity, concentrations of a compound of formula COMPA-P are calculated using appropriate calibration curves in the same solvent system. […]

[1] = tested on: human endothelial cells (HUVEC); assay: Uptake, subcellular distribution and metabolism of fluorescent labeled sphingosines in human endothelial cells; assay type: cell-based
From the text: To examine the uptake, subcellular distribution and metabolism (conversion to the phosphate) in human endothelial cells (HUVEC), the pyrene labeled sphingosine of example 4 is used. […] Furthermore, the compound is converted intracellularly into 4 products as shown by thin-layer chromatography.

[2] = tested on: HUVEC overexpressing SPHK-1 or SPHK-2; assay: Sphingolipid turnover of labeled sphingosines in HUVEC transiently transfected with SPHK-1 and SPHK-2; assay type: cell-based, human; conditions: FIG. 3, transfected cells, TLC
Experimental: HUVEC as described in Test Example 4 are seeded in 6-well plates at 50% confluency and grown overnight. Grown cells obtained are transfected using Lipofectamine Plus reagent with an empty vector (GFP-vector from Clontech) alone and GFP-tagged expression constructs coding for SPHK-1 and SPHK-2. Transfection is carried out for 20 hours. To the transfected cells obtained a labeled compound of formula I wherein X is (HO)2PO is added at 2 μM and incubated for 0.5 hours, 1 hour and 3 hours, respectively. Lipids are extracted and the extraction residue obtained is subjected to TLC using BuOH/AcOH/H2O 3:1:1 as a solvent system. TLC plates obtained are scanned using CCD camera and density of the lipid products obtained is measured using AlphaImage 2200 (see FIG. 3).

SMILES: N[C@@H](CO)[C@H](O)/C=C/CCCOC(=O)CCCc1cc2ccc3cccc4ccc(c1)c2c34 [Example 1]
rate of phosphorylation (phosphate conversion rate) relative to sphingosine (=1), SPHK-2 (human SPHK-2; 1 mM ATP, 30°): 0.14 | rate of phosphorylation (phosphate conversion rate) relative to sphingosine (=1), SPHK-1 (human SPHK-1; 1 mM ATP, 30°): 0.048 | times (fold) less efficiently converted to the phosphate than SP, SPHK-1 (human SPHK-1): about 20

SMILES: N[C@@H](CO)[C@H](O)/C=C/CCCCCCCCCCOC(=O)c1cc2ccc3cccc4ccc(c1)c2c34 [Example 4]
rate of phosphorylation (phosphate conversion rate) relative to sphingosine (=1), SPHK-2 (human SPHK-2; 1 mM ATP, 30°): 1.25 | phosphorylation by SPHK-1 (in words) (human SPHK-1): almost equal phosphorylation by SPHK-1 relative to natural SP | rate of phosphorylation (phosphate conversion rate) relative to sphingosine (=1), SPHK-1 (human SPHK-1; 1 mM ATP, 30°): 0.83 | degradation of the ester functionality (human SPHK-1; short term in vitro phosphorylation experiments): no degradation is observed | time to incorporation into the cells after addition [1]: ≤ 5 min | subcellular distribution ([1]; after 15-30 minutes of incubation): predominantly distribution to the endoplasmic reticulum and to the Golgi apparatus | major metabolite ([1]; thin-layer chromatography): co-migrates with sphingosine-1-phosphate (SPP) | number of products formed intracellularly ([1]; thin-layer chromatography): 4

SMILES: N[C@@H](CO)[C@H](O)/C=C/CCCOC(=O)CCCCCc1cc2ccc3cccc4ccc(c1)c2c34 [Example 2]
rate of phosphorylation (phosphate conversion rate) relative to sphingosine (=1), SPHK-2 (human SPHK-2; 1 mM ATP, 30°): 0.83 | rate of phosphorylation (phosphate conversion rate) relative to sphingosine (=1), SPHK-1 (human SPHK-1; 1 mM ATP, 30°): 0.078 | improvement of phosphorylation rate by a factor, SPHK-1 (human SPHK-1; compared to example 1): 2

SMILES: N[C@@H](CO)[C@H](O)/C=C/CCCCCCCCCCNc1ccc([N+](=O)[O-])c2nonc12 [Example 24]
phosphorylation in cells overexpressing SPHK-1 versus SPHK-2 [2]: phosphorylated more efficient by SPHK-2 than by SPHK-1

SMILES: CN(C)c1cccc2c(S(=O)(=O)NCCCCCCCCCC/C=C/[C@@H](O)[C@@H](N)CO)cccc12 [Example 7]
rate of phosphorylation (phosphate conversion rate) relative to sphingosine (=1), SPHK-2 (human SPHK-2; 1 mM ATP, 30°): 0.026 | rate of phosphorylation (phosphate conversion rate) relative to sphingosine (=1), SPHK-1 (human SPHK-1; 1 mM ATP, 30°): 0.063

The next lines start with the values.

phosphorylation by sphingosine kinase in the presence of ATP (sphingosine kinase): phosphorylates
SMILES: N[C@H](COCCCCCCCCCCCNc1ccc([N+](=O)[O-])c2nonc12)COP(=O)(O)O [Example 23, Phosphoric acid mono-{(R)-2-amino-3-[11-(7-nitro-benzo[1,2,5]oxadiazol-4-ylamino)-undecyloxy]-propyl}ester]

rate of phosphorylation (phosphate conversion rate) relative to sphingosine (=1), SPHK-2 (human SPHK-2; 1 mM ATP, 30°): 0.065 | rate of phosphorylation (phosphate conversion rate) relative to sphingosine (=1), SPHK-1 (human SPHK-1; 1 mM ATP, 30°): 0.024 | times (fold) less efficiently converted to the phosphate than SP, SPHK-1 (human SPHK-1): about 40
SMILES: N[C@@H](CO)[C@H](O)/C=C/CCCOC(=O)CCCCCCCCCc1cc2ccc3cccc4ccc(c1)c2c34 [Example 3]

rate of phosphorylation (phosphate conversion rate) relative to sphingosine (=1), SPHK-2 (human SPHK-2; 1 mM ATP, 30°): 0.59 | reduction of phosphorylation efficiency (factor), SPHK-2 (human SPHK-2; compared to compound of example 4): 3 | rate of phosphorylation (phosphate conversion rate) relative to sphingosine (=1), SPHK-1 (human SPHK-1; 1 mM ATP, 30°): 0.28 | reduction of phosphorylation efficiency (factor), SPHK-1 (human SPHK-1): 2
SMILES: N[C@@H](CO)[C@H](O)/C=C/CCCCCCCCCCNC(=O)c1cc2ccc3cccc4ccc(c1)c2c34 [Example 5]

rate of phosphorylation with SPHK-2 (human SPHK-2; 20 μM, 1 mM ATP, 30°): 25 nmol/min/mg | rate of phosphorylation with SPHK-1 (human SPHK-1; 20 μM, 1 mM ATP, 30°): 41 nmol/min/mg
SMILES: CCCCCCCCCCCCC/C=C/[C@@H](O)[C@@H](N)CO [sphingosine]

phosphorylation by SPHK-2 (in words) (human SPHK-2): almost as efficiently as SP | rate of phosphorylation (phosphate conversion rate) relative to sphingosine (=1), SPHK-2 (human SPHK-2; 1 mM ATP, 30°): 0.83 | rate of phosphorylation (phosphate conversion rate) relative to sphingosine (=1), SPHK-1 (human SPHK-1; 1 mM ATP, 30°): 0.051 | reduction of phosphorylation efficiency (factor), SPHK-1 (human SPHK-1): about 20
SMILES: N[C@@H](CO)[C@H](O)/C=C/CCCCCCCCCCNS(=O)(=O)c1cc2ccc3cccc4ccc(c1)c2c34 [Example 6]
